Assay results from ChEMBL document CHEMBL1154298, “Novel non-peptidic vinylsulfones targeting the S2 and S3 subsites of parasite cysteine proteases” (Bioorg Med Chem Lett, 2009).

Assays:
[1] = target: Cruzipain (Trypanosoma cruzi) (UniProt P25779); experiment: Inhibition of Trypanosoma cruzi cruzain at 1 uM after 5 mins
[2] = target: Cruzipain (Trypanosoma cruzi, UniProt P25779)
[3] = target: Rhodesain (Trypanosoma brucei rhodesiense, UniProt Q95PM0)
[4] = target: T1, Cathepsin B-like cysteine protease (Trypanosoma brucei, UniProt Q6R7Z5)
T1 sequence (Q6R7Z5 whole entry): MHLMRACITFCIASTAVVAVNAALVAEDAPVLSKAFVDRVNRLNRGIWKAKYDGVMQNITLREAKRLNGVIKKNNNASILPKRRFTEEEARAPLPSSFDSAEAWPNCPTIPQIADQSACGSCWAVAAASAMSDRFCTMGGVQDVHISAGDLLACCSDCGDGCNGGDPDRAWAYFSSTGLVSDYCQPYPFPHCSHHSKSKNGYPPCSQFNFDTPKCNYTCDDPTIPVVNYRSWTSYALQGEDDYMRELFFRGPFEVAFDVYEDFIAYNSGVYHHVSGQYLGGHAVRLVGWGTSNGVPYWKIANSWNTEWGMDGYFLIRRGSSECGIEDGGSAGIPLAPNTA

[5] = target: Rhodesain (Trypanosoma brucei rhodesiense) (UniProt Q95PM0)
Rhodesain (Trypanosoma brucei rhodesiense), sequence (Q95PM0 1-450): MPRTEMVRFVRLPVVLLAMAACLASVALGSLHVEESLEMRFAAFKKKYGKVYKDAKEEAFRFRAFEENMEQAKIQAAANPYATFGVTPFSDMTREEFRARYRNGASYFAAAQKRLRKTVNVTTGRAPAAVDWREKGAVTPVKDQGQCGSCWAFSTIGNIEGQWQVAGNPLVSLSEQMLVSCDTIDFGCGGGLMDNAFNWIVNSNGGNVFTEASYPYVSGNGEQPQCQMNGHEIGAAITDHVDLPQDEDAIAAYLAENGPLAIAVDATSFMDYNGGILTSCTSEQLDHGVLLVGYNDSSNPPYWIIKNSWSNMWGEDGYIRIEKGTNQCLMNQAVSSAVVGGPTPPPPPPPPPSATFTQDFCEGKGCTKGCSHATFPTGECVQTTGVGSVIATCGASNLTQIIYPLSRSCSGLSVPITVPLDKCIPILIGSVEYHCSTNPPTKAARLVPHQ

[6] = system: Jurkat; experiment: cells; details: Homo sapiens
[7] = system: Trypanosoma brucei brucei; experiment: microbe, parasite or virus in culture; details: Jurkat

Cruzipain, sequence (P25779 whole entry): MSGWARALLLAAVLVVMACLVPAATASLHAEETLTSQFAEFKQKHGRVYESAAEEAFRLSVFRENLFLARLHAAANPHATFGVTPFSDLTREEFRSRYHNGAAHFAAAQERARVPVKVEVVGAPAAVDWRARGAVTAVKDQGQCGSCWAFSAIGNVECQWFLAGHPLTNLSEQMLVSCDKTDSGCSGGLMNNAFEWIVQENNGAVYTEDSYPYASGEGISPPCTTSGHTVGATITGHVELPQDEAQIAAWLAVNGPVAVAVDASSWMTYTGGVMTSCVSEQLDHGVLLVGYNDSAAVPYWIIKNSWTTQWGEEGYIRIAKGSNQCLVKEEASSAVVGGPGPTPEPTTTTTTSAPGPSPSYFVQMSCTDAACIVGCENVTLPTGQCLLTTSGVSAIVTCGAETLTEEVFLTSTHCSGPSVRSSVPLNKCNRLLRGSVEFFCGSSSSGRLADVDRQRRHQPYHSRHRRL
Rhodesain, sequence (Q95PM0 whole entry): as the sequence (Q95PM0 1-450) above
Cruzipain (Trypanosoma cruzi), sequence (P25779 123-467 limits assumed): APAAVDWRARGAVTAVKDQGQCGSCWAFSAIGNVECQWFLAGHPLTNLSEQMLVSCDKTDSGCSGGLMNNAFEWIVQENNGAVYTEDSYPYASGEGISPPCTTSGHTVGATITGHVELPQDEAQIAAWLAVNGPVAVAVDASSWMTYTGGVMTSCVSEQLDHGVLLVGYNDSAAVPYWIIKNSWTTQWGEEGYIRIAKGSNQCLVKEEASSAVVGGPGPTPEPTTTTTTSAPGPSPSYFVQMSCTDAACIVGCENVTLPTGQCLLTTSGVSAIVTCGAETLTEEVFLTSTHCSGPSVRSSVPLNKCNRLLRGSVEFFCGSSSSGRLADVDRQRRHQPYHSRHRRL

| SMILES | inhibition [1] [%] | IC50 [2] [µM] | IC50 [3] [µM] | Ki [3] [µM] | IC50 [4] [µM] | Kinact [5] [s⁻¹] | IC50 [6] [µM] | GI50 [7] [µM] |
| --- | --- | --- | --- | --- | --- | --- | --- | --- |
| O=C(N[C@H](/C=C/S(=O)(=O)c1ccccc1)CCc1ccccc1)c1ccccc1C(=O)c1ccc(Cl)cc1 | 3 |  |  |  |  |  |  |  |
| CC(C)(C)c1cc(C(=O)N[C@H](/C=C/S(=O)(=O)c2ccccc2)CCc2ccccc2)n(Cc2ccccc2)n1 | 2 |  |  |  |  |  |  |  |
| O=C(N[C@H](/C=C/S(=O)(=O)c1ccccc1)CCc1ccccc1)c1cc(-c2ccccn2)no1 | < 5 | 6 | 0.05 | 7.4 | > 100 | 0.0038 | > 100 | 10 |
| Cc1onc(-c2ccc(F)cc2)c1C(=O)N[C@H](/C=C/S(=O)(=O)c1ccccc1)CCc1ccccc1 | 12.5 |  |  |  |  |  |  |  |
| O=C(N[C@H](/C=C/S(=O)(=O)c1ccccc1)CCc1ccccc1)c1cc(-c2ccccc2)no1 |  | 2 | 0.01 | 13 | 40 | 0.0031 | > 100 | > 100 |
| CN1CCN(C(=O)N[C@@H](Cc2ccccc2)C(=O)N[C@H](/C=C/S(=O)(=O)c2ccccc2)CCc2ccccc2)CC1 [K-777] |  |  |  |  | 4 |  |  | 7 |
| O=C(N[C@H](/C=C/S(=O)(=O)c1ccccc1)CCc1ccccc1)c1cc(-c2ccncc2)no1 | < 5 | 5 | 0.05 | 16.2 | > 100 | 0.0091 | > 100 | 10 |
| O=C(N[C@H](/C=C/S(=O)(=O)c1ccccc1)CCc1ccccc1)c1cc(-c2cccnc2)no1 |  | 1 | 0.01 |  | > 100 |  | > 100 | > 100 |
| Cc1nc(-c2ccccc2)sc1C(=O)N[C@H](/C=C/S(=O)(=O)c1ccccc1)CCc1ccccc1 | < 5 | 10 | < 0.006 | 0.32 | > 100 | 0.0018 | > 100 | > 100 |
| Cc1nc(-c2cccnc2)sc1C(=O)N[C@H](/C=C/S(=O)(=O)c1ccccc1)CCc1ccccc1 |  | 2 | 0.03 |  | > 100 |  | 98 | 20 |
| O=C(N[C@H](/C=C/S(=O)(=O)c1ccccc1)CCc1ccccc1)[C@H]1CCCC[C@@H]1C(=O)c1ccc(Cl)cc1 |  | > 100 | 56 | 4.9 | > 100 | 0.0007 |  |  |
| Cc1nc(-c2cnccn2)sc1C(=O)N[C@H](/C=C/S(=O)(=O)c1ccccc1)CCc1ccccc1 |  | 1 | 0.01 | 4.77 | > 100 | 0.0079 | > 100 | 7 |
| O=C(N[C@H](/C=C/S(=O)(=O)c1ccccc1)CCc1ccccc1)[C@@H]1CCCC[C@H]1C(=O)c1ccc(Cl)cc1 |  | 0.05 | 0.1 | 0.8 | 16 | 0.00051 |  |  |
